Laboratory results taken from ChEMBL document CHEMBL5291721, “A preclinical secondary pharmacology resource illuminates target-adverse drug reaction associations of marketed drugs” (Nat Commun, 2023).

What was measured:
[1] = molecular target: T1, Type-1 angiotensin II receptor (Homo sapiens, UniProt P30556)
T1 sequence (P30556 whole entry): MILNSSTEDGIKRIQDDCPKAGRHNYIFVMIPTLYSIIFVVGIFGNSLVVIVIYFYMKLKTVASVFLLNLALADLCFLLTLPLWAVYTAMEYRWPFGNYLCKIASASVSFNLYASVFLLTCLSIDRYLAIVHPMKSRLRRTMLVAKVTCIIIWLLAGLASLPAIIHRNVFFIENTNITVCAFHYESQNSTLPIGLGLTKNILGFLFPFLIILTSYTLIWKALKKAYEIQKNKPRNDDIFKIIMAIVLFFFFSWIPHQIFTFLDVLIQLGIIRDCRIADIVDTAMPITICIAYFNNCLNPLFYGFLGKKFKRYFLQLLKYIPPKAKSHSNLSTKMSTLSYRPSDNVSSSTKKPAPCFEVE

[2] = molecular target: T2, Muscarinic acetylcholine receptor M2 (Homo sapiens, UniProt P08172); type: functional, cell-based
T2 sequence (P08172 whole entry): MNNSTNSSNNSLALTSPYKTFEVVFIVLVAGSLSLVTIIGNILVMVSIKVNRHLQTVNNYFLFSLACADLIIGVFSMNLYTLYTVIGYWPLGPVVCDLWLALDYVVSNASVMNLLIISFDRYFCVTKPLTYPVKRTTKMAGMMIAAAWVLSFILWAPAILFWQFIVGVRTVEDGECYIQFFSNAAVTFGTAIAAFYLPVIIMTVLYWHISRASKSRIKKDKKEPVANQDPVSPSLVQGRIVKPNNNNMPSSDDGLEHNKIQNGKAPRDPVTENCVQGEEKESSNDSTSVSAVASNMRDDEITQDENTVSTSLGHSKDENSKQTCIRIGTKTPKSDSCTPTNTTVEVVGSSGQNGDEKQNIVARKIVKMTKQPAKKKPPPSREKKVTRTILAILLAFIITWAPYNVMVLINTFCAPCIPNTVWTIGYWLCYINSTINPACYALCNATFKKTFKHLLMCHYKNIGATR

[3] = molecular target: Neuronal acetylcholine receptor subunit alpha-4 (Homo sapiens, UniProt P43681)
[4] = molecular target: T3, 5-hydroxytryptamine receptor 1A (Homo sapiens, UniProt P08908); type: functional, cell-based
T3 sequence (P08908 whole entry): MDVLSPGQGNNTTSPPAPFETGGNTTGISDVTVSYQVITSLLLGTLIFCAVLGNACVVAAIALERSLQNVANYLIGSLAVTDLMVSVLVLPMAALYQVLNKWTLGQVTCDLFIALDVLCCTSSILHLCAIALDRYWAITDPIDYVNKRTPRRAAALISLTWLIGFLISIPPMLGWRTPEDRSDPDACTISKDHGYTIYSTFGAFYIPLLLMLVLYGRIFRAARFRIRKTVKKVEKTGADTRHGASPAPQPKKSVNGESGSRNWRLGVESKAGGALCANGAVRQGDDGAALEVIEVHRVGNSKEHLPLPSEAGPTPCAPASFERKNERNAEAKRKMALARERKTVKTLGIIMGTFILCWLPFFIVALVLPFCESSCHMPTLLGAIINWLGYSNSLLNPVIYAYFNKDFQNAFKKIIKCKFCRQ

Melanocortin receptor 3 = Melanocortin receptor 3 (Homo sapiens, UniProt P41968)
Motilin receptor = Motilin receptor (Homo sapiens, UniProt O43193)
[5] = molecular target: 3',5'-cyclic-AMP phosphodiesterase 4D (Homo sapiens, UniProt Q08499); type: functional
[6] = molecular target: T4, Prostaglandin G/H synthase 1 (Rattus norvegicus, UniProt Q63921); type: functional
T4 sequence (Q63921 whole entry): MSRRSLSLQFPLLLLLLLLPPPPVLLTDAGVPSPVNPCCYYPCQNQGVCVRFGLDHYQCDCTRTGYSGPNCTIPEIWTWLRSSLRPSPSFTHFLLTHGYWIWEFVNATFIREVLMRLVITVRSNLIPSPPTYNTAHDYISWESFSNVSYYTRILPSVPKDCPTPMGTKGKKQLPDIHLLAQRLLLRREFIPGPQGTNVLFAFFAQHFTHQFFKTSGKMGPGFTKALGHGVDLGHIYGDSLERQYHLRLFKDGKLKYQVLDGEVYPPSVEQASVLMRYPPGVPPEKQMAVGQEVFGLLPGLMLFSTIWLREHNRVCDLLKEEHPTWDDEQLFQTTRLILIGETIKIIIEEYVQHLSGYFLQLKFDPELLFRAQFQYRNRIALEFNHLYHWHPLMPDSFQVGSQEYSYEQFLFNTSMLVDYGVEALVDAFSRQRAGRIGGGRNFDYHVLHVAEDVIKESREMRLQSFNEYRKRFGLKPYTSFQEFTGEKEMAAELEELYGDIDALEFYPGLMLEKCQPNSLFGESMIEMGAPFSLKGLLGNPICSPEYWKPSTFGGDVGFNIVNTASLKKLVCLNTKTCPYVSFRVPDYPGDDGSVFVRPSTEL

[7] = molecular target: T5, Amine oxidase [flavin-containing] A (Homo sapiens, UniProt P21397); type: functional
T5 sequence (P21397 whole entry): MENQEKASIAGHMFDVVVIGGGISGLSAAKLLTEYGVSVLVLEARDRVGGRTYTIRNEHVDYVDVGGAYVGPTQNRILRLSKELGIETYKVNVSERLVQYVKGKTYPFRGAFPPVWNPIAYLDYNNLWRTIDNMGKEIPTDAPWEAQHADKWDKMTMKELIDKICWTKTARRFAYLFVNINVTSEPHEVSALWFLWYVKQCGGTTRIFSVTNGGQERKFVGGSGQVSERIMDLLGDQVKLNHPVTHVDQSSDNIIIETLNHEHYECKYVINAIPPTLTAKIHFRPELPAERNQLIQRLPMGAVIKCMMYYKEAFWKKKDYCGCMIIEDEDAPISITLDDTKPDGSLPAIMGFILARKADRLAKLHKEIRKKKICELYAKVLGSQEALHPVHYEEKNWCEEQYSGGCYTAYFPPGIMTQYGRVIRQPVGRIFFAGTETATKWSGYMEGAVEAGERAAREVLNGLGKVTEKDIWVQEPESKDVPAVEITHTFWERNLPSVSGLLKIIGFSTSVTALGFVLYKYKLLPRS
Note: assay procedure not described here.

Sequence of Melanocortin receptor 3 (P41968 whole entry): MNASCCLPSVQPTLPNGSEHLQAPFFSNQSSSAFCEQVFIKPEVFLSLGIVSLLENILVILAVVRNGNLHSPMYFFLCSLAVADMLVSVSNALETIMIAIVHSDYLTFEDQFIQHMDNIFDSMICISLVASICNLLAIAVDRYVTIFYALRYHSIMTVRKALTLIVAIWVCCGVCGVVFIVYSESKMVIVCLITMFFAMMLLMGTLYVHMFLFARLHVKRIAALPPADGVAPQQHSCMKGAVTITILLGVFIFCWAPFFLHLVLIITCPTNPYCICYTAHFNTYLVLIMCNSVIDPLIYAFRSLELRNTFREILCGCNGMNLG
Sequence of Motilin receptor (O43193 whole entry): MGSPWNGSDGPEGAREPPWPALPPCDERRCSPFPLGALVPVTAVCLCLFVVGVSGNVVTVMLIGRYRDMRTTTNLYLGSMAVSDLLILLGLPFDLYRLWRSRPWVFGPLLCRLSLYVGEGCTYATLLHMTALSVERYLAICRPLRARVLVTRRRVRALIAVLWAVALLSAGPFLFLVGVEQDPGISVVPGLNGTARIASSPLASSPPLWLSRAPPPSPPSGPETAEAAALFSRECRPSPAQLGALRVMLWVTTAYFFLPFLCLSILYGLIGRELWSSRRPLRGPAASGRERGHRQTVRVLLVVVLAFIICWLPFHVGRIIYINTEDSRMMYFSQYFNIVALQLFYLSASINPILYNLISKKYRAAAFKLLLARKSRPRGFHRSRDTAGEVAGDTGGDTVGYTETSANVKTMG
Sequence of Neuronal acetylcholine receptor subunit alpha-4 (P43681 whole entry): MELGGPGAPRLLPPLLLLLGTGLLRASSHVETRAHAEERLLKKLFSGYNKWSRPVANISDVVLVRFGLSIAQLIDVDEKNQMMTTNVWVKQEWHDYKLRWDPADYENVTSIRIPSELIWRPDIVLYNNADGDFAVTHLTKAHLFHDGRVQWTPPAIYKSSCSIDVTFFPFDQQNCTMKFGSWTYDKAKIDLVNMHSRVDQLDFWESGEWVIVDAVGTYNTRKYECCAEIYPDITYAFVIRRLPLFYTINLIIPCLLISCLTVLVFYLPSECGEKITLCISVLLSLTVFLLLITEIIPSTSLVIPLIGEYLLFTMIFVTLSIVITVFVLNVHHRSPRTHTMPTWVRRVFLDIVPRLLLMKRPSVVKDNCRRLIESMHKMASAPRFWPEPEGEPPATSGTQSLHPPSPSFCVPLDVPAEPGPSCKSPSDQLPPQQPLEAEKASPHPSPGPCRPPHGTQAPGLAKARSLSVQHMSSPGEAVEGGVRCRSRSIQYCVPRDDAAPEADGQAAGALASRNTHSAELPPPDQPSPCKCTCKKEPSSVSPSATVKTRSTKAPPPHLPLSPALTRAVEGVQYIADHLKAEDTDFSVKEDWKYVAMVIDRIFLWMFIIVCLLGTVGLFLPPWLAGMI
Sequence of 3',5'-cyclic-AMP phosphodiesterase 4D (Q08499 whole entry): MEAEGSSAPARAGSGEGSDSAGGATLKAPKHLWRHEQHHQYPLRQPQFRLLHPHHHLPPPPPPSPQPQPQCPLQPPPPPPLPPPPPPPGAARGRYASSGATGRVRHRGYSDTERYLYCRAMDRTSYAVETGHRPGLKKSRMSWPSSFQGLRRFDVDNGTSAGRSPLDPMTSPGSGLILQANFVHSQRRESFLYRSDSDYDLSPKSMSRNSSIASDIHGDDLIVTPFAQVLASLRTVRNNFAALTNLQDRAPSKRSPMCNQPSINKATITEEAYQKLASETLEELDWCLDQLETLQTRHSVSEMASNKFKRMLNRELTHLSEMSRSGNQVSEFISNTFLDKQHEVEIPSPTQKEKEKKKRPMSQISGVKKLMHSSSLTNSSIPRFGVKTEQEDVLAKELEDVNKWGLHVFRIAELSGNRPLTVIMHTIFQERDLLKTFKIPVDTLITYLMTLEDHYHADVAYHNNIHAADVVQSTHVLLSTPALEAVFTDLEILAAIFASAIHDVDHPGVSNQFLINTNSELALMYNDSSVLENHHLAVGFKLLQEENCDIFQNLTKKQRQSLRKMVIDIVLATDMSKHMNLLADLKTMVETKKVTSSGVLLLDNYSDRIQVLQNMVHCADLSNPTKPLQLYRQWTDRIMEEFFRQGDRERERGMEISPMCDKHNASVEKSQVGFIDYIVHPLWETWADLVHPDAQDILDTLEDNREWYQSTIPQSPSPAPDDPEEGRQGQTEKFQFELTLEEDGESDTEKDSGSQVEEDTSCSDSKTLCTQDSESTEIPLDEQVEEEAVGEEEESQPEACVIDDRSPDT

Structure (SMILES)	AC50 [1] [µM]	AC50 [2] [µM]	AC50 [3] [µM]	AC50 [4] [µM]	AC50 (Melanocortin receptor 3) [µM]	AC50 (Motilin receptor) [µM]	AC50 [5] [µM]	AC50 [6] [µM]	AC50 [7] [µM]
CCCC(CCC)C(N)=O [VALPROMIDE]	> 30	> 10	> 10	> 30	> 30	> 10	> 30	> 30	> 10
CCOC(=O)C1=C(C)NC(C)=C(C(=O)OC)C1c1cccc([N+](=O)[O-])c1 (stereo not drawn) [NITRENDIPINE]	> 30	> 10	> 10	> 10	> 30	> 10	> 30	> 30	> 10
CN1CCN(C2=Nc3ccccc3Oc3ccc(Cl)cc32)CC1 [LOXAPINE]	> 30	–	> 10	> 10	> 30	> 10	–	> 30	> 10
CC(=O)N[C@@H](CS)C(=O)O [ACETYLCYSTEINE]	> 30	> 30	> 30	> 30	> 30	> 30	> 30	–	> 30
O=[N+]([O-])c1ccc(O)c2ncccc12 [NITROXOLINE]	–	> 30	–	> 30	–	–	3.2	–	> 30
CNCc1ccc(-c2[nH]c3cc(F)cc4c3c2CCNC4=O)cc1 [RUCAPARIB]	> 30	> 10	> 30	–	> 30	> 30	10	> 30	> 10
CC[C@@H]([C@H](C)O)n1ncn(-c2ccc(N3CCN(c4ccc(OC[C@@H]5CO[C@@](Cn6cncn6)(c6ccc(F)cc6F)C5)cc4)CC3)cc2)c1=O [POSACONAZOLE]	–	–	–	–	> 30	–	> 30	> 30	> 30
CCCc1nc(C(C)(C)O)c(C(=O)O)n1Cc1ccc(-c2ccccc2-c2nnn[nH]2)cc1 [OLMESARTAN]	0.0004	–	–	–	–	–	–	–	–
CCC[C@H](NC(=O)[C@@H]1[C@H]2CCC[C@H]2CN1C(=O)[C@@H](NC(=O)[C@@H](NC(=O)c1cnccn1)C1CCCCC1)C(C)(C)C)C(=O)C(=O)NC1CC1	> 30	–	> 10	–	> 30	> 10	> 30	> 30	> 10
CC(C)COCC(CN(Cc1ccccc1)c1ccccc1)N1CCCC1 (stereo not drawn) [BEPRIDIL]	> 30	> 30	–	> 30	12.5	20.2	> 30	> 30	> 30
Cc1cccc(N2CC(CO)OC2=O)c1 (stereo not drawn) [TOLOXATONE]	> 30	> 30	> 30	> 30	> 30	> 30	> 30	> 30	–
